Test results reported in ChEMBL document CHEMBL4350989, “Discovery of 2,4-diarylaminopyrimidine derivatives bearing dithiocarbamate moiety as novel FAK inhibitors with antitumor and anti-angiogenesis activities” (Eur J Med Chem, 2019).

How the values were obtained:
[1] = test system: HCT-116; assay: Induction of apoptosis in human HCT116 cells assessed as viable cells at 0.005 uM after 24 hrs by Annexin-V and 7-AAD staining based flow cytometric analysis (reference value: 88.6%); type: functional; conditions: HCT-116, 24 h, read-out: Activity
[2] = test system: HCT-116; assay: Induction of apoptosis in human HCT116 cells assessed as late apoptotic cells at 0.005 uM after 24 hrs by Annexin-V and 7-AAD staining based flow cytometric analysis (reference value: 2.63%); type: functional
[3] = test system: HCT-116; assay: Induction of apoptosis in human HCT116 cells assessed as necrotic cells at 0.05 uM after 24 hrs by Annexin-V and 7-AAD staining based flow cytometric analysis (reference value: 0.68%); type: functional
[4] = test system: HCT-116; assay: Induction of cell cycle arrest in human HCT116 cells assessed as accumulation at S phase at 0.05 uM after 24 hrs by 7-AAD staining-based flow cytometric analysis (reference value: 37.20%); type: functional
[5] = test system: MCF7; assay: Induction of apoptosis in human MCF7 cells assessed as early apoptotic cells at 0.005 uM after 24 hrs by Annexin-V and 7-AAD staining based flow cytometric analysis (reference value: 2.04%); type: functional
[6] = test system: MCF7; assay: Induction of apoptosis in human MCF7 cells assessed as viable cells at 0.01 uM after 24 hrs by Annexin-V and 7-AAD staining based flow cytometric analysis (reference value: 90.2%); type: functional; conditions: MCF7, 24 h, read-out: Activity
[7] = test system: MCF7; assay: Induction of apoptosis in human MCF7 cells assessed as late apoptotic cells at 0.05 uM after 24 hrs by Annexin-V and 7-AAD staining based flow cytometric analysis (reference value: 7.63%); type: functional
[8] = test system: MCF7; assay: Antiproliferative activity against human MCF7 cells overexpressing FAK assessed as reduction in cell viability after 72 hrs by MTS assay; conditions: MCF7, 72 h
[9] = test system: MCF-10A; assay: Cytotoxicity against human MCF10A cells assessed as reduction in cell viability after 72 hrs by MTS assay
[10] = test system: HCT-116; assay: Induction of cell cycle arrest in human HCT116 cells assessed as accumulation at G2/M phase at 0.1 uM after 24 hrs by 7-AAD staining-based flow cytometric analysis (reference value: 12.26%); type: functional
[11] = test system: HCT-116; assay: Induction of apoptosis in human HCT116 cells after 24 hrs by Annexin-V and 7-AAD staining based flow cytometric analysis; type: functional, cell-based
[12] = test system: HCT-116; assay: Induction of cell cycle arrest in human HCT116 cells assessed as accumulation at G0/G1 phase at 0.05 uM after 24 hrs by 7-AAD staining-based flow cytometric analysis (reference value: 50.53%); type: functional
[13] = test system: MCF7; assay: Induction of cell cycle arrest in human MCF7 cells assessed as accumulation at G2/M phase at 0.005 uM after 24 hrs by 7-AAD staining-based flow cytometric analysis (reference value: 11.48%); type: functional
[14] = test system: HCT-116; assay: Induction of cell cycle arrest in human HCT116 cells assessed as increase in accumulation at G2/M phase after 24 hrs by 7-AAD staining-based flow cytometric analysis; type: functional
[15] = test system: HCT-116; assay: Induction of cell cycle arrest in human HCT116 cells assessed as accumulation at G0/G1 phase at 0.1 uM after 24 hrs by 7-AAD staining-based flow cytometric analysis (reference value: 50.53%); type: functional
[16] = test system: HCT-116; assay: Induction of apoptosis in human HCT116 cells assessed as necrotic cells at 0.005 uM after 24 hrs by Annexin-V and 7-AAD staining based flow cytometric analysis (reference value: 0.68%); type: functional
[17] = test system: MCF7; assay: Induction of cell cycle arrest in human MCF7 cells assessed as accumulation at G2/M phase at 0.01 uM after 24 hrs by 7-AAD staining-based flow cytometric analysis (reference value: 11.48%); type: functional
[18] = test system: MCF7; assay: Induction of cell cycle arrest in human MCF7 cells assessed as accumulation at G0/G1 phase at 0.05 uM after 24 hrs by 7-AAD staining-based flow cytometric analysis (reference value: 62.45%); type: functional
[19] = test system: HCT-116; assay: Induction of apoptosis in human HCT116 cells assessed as late apoptotic cells at 0.05 uM after 24 hrs by Annexin-V and 7-AAD staining based flow cytometric analysis (reference value: 2.63%); type: functional
[20] = test system: MCF7; assay: Induction of apoptosis in human MCF7 cells assessed as necrotic cells at 0.005 uM after 24 hrs by Annexin-V and 7-AAD staining based flow cytometric analysis (reference value: 0.16%); type: functional
[21] = test system: MCF7; assay: Induction of cell cycle arrest in human MCF7 cells assessed as accumulation at G0/G1 phase at 0.005 uM after 24 hrs by 7-AAD staining-based flow cytometric analysis (reference value: 62.45%); type: functional
[22] = test system: HCT-116; assay: Induction of apoptosis in human HCT116 cells assessed as necrotic cells at 0.1 uM after 24 hrs by Annexin-V and 7-AAD staining based flow cytometric analysis (reference value: 0.68%); type: functional
[23] = test system: HCT-116; assay: Induction of apoptosis in human HCT116 cells assessed as viable cells at 0.05 uM after 24 hrs by Annexin-V and 7-AAD staining based flow cytometric analysis (reference value: 88.6%); type: functional; conditions: HCT-116, 24 h, read-out: Activity
[24] = test system: MCF7; assay: Induction of apoptosis in human MCF7 cells assessed as viable cells at 0.05 uM after 24 hrs by Annexin-V and 7-AAD staining based flow cytometric analysis (reference value: 90.2%); type: functional; conditions: MCF7, 24 h, read-out: Activity
[25] = test system: MCF7; assay: Induction of cell cycle arrest in human MCF7 cells assessed as accumulation at S phase at 0.01 uM after 24 hrs by 7-AAD staining-based flow cytometric analysis (reference value: 26.07%); type: functional
[26] = test system: MCF7; assay: Induction of cell cycle arrest in human MCF7 cells assessed as accumulation at G0/G1 phase at 0.01 uM after 24 hrs by 7-AAD staining-based flow cytometric analysis (reference value: 62.45%); type: functional
[27] = test system: PC-3; assay: Antiproliferative activity against human PC3 cells overexpressing FAK assessed as reduction in cell viability after 72 hrs by MTS assay; conditions: PC-3, 72 h
[28] = test system: HCT-116; assay: Induction of apoptosis in human HCT116 cells assessed as early apoptotic cells at 0.05 uM after 24 hrs by Annexin-V and 7-AAD staining based flow cytometric analysis (reference value: 8.11%); type: functional
[29] = test system: MCF7; assay: Induction of cell cycle arrest in human MCF7 cells assessed as accumulation at S phase at 0.05 uM after 24 hrs by 7-AAD staining-based flow cytometric analysis (reference value: 26.07%); type: functional
[30] = test system: MCF7; assay: Induction of apoptosis in human MCF7 cells assessed as late apoptotic cells at 0.01 uM after 24 hrs by Annexin-V and 7-AAD staining based flow cytometric analysis (reference value: 7.63%); type: functional
[31] = test system: HCT-116; assay: Induction of cell cycle arrest in human HCT116 cells assessed as accumulation at S phase at 0.1 uM after 24 hrs by 7-AAD staining-based flow cytometric analysis (reference value: 37.20%); type: functional
[32] = test system: MCF7; assay: Induction of apoptosis in human MCF7 cells assessed as early apoptotic cells at 0.05 uM after 24 hrs by Annexin-V and 7-AAD staining based flow cytometric analysis (reference value: 2.04%); type: functional
[33] = test system: MCF7; assay: Induction of cell cycle arrest in human MCF7 cells assessed as accumulation at G2/M phase at 0.05 uM after 24 hrs by 7-AAD staining-based flow cytometric analysis (reference value: 11.48%); type: functional

IC50 [8]: 20 nM
IC50 [27]: 30 nM
SMILES: CNC(=O)c1ccccc1Nc1nc(Nc2ccc(C(=O)N3CCN(C(=S)SCCN(C)C)CC3)cc2)ncc1C(F)(F)F
viability at 0.005 µM [1]: 82.4%
Activity [2]: 1.42%
Activity [3]: 0.29%
Activity [4]: 9.05%
Activity [5]: 9.11%
viability at 0.01 µM [6]: 71.2%
Activity [7]: 25.7%
IC50 [9]: 280 nM
Activity [10]: 90.46%
Activity [11]: Dose-dependent effect
Activity [12]: 3.4%
Activity [13]: 36.67%
Activity [14]: Dose-dependent effect
Activity [15]: 5.14%
Activity [16]: 0.2%
Activity [17]: 81.73%
Activity [18]: 6.72%
Activity [19]: 1.68%
Activity [20]: 0.16%
Activity [21]: 41.93%
Activity [22]: 0%
viability at 0.05 µM [23]: 79.3%
viability at 0.05 µM [24]: 60.1%
Activity [25]: 8.75%
Activity [26]: 9.52%
Activity [28]: 18.7%
Activity [29]: 7.2%
Activity [30]: 21.4%
Activity [31]: 4.4%
Activity [32]: 13.7%
Activity [33]: 86.08%
